Measurements reported in patent publication US20250144250A1, “PH-SENSITIVE FLUOROPHORES” (The General Hospital Corporation, priority 2022, published 2025).

Tested on: ID8 cells
Assay: Live-cell labeling and in vitro imaging: cellular uptake of NIR fluorophores
Type: cell-based, murine
Conditions: fluorescence microscopy
Procedure: FIG. 2 Cellular uptake of pH sensing NIR fluorophores via membrane transporters: In vitro tumor cell uptake of the pH sensing NIR probes under normoxic and hypoxic conditions. Murine cancer cell line ID8 cells were incubated at normoxic or hypoxic conditions (1% O2) for 24 h at 37° C. and then incubated for 30 min in the presence of 0.1 μM NIR probes. (a) Representative fluorescence images of cells are shown. The contrast was normalized across all images. Scale bar=100 μm. (b) Quantitative time-course measurements of the fluorescence intensity in cells. *P<0.05, **P<0.01 by two-way ANOVA followed by Tukey's multiple comparisons test (Normoxia vs. Hypoxia). Error bars show mean #s.d. (c) Inhibition assay of transporters to determine the entry mechanisms in ID8 cells. […] Representative fluorescence images of cells are shown. […] (d) Quantitative measurements of the fluorescence intensity in cells. *P<0.05 by two-way ANOVA followed by Tukey's multiple comparisons test. […]
Live-cell labeling and in vitro imaging: Murine ovarian cancer cells (ID8 cells) were obtained from Dr. Wang's lab in the Vincent Center for Reproductive Biology at Massachusetts General Hospital (MGH). […] Image acquisition and analysis were performed using IPLab software (Scanalytics, Fairfax, VA), and the fluorescent intensity of each cell was measured using ImageJ (National Institutes of Health, Bethesda, MD). […]

CCN1/C(=C/C=C2\CCCC(/C=C/C3=[N+](CC)c4ccccc4C3(C)C)=C2c2ccccc2)C(C)(C)c2ccccc21 [PH03, 1-Ethyl-2-((E)-2-((E)-6-(2-((E)-1-ethyl-3,3-dimethylindolin-2-ylidene)ethylidene)-3,4,5,6-tetrahydro-[1,1′-biphenyl]-2-yl)vinyl)-3,3-dimethyl-3H-indol-1-ium iodide]
accumulation in cells: time-dependent manner

CCN1/C(=C/C=C2\CCCC(/C=C/C3=[N+](CC)c4ccccc4C3(C)C)=C2N2CCNCC2)C(C)(C)c2ccccc21 [PH08]
accumulation in cells: time-dependent manner
